Data published in patent publication US20220110318A1, “COMPOSITIONS AND METHODS FOR POLLEN STORAGE AND PRESERVATION” (PIONEER HI-BRED INTERNATIONAL, INC., priority 2018, published 2022).

Assays:
maize pollen [1] = assay: Protective compounds: prevention of pollen bursting on germination media; format: cell-based; conditions: loose pollen soaked 20 minutes, compared with fresh pollen without protection
Procedure: In this example, various putative protective compounds were evaluated for their efficacy in preventing pollen from bursting on germination media. Nine different chemical treatments were applied to loose pollen shed from maize plants. Pollen was soaked in chemical solution for 20 minutes and then placed on media to observe the impact on pollen viability and compared with fresh pollen without protection as control.

maize pollen [2] = assay: Pollen tube formation with germination media comprising surfactant; format: cell-based; conditions: surfactant at both 0.01% and 0.1% in germination media, pollen stored 1° C. for a day, within two hours
Procedure: Maize pollen was stored in 326C media with 1000 mM Sucrose and 500 mM Betaine at a pH of 9.0. Pollen was stored at 1° C. for a day. After this time period, germination medias comprising surfactant were added in amounts up to five times the volume of storage media. Surfactant conditions tested were 0.1% Tween 20, 0.01% Tween 20, 0.1% Pluronic F68, and 0.01% Pluronic F68 (final concentration). Pollen was observed microscopically prior to replacement of media and two hours after replacement. Pluronic F68, also known as poloxamer 188, is a non-ionic surfactant, a member of a class of polaxamers comprising non-ionic triblock copolymers composed of a central hydrophobic chain of polyoxypropylene flanked by two hydrophilic chains of polyoxyethylene.

Row | Molecule | Preventing pollen from bursting on germination media (maize pollen [1]) | Pollen tube formation (maize pollen [2])
1 | C[S+](C)[O-] [5% DMSO, DMSO] | did not prevent pollen from bursting | –
2 | Tween 20 | – | lysis but no pollen tube formation
